Source: PubChem BioAssay (NCI)
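Exposure lasted 48 hours, with cells grown in 96-well plates and compounds tested at five concentrations. GI50 is the concentration that inhibits growth by half. Definition used: TGI = concentration required for complete inhibition of growth.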

Experiments:
Experiment in all cases: inhibition of tumour cell growth, NCI panel, 48 h
[1] = tested on: MDA-MB-231 breast
[2] = tested on: SW-620 colon
[3] = tested on: 786-0 renal
[4] = tested on: OVCAR-4 ovarian
[5] = tested on: M14 melanoma
[6] = tested on: LOX IMVI melanoma
[7] = tested on: SNB-19 CNS
[8] = tested on: UO-31 renal
[9] = tested on: UACC-257 melanoma
[10] = tested on: NCI-H522 lung

SMILES | GI50 [1] | TGI [1] | GI50 [2] | TGI [2] | GI50 [3] | TGI [3] | GI50 [4] | TGI [4] | GI50 [5] | TGI [5] | GI50 [6] | TGI [6] | GI50 [7] | TGI [7] | GI50 [8] | TGI [8] | GI50 [9] | TGI [9] | TGI [10] | GI50 [10]
Nc1nc(N)c2nc3c(nc2n1)CCCCCCCCCC3 | 6.04 µM | > 100 µM | 0.553 µM | > 100 µM | 0.675 µM | > 100 µM | > 100 µM | > 100 µM | 0.544 µM | > 100 µM | 0.733 µM | > 100 µM | 6.43 µM | > 100 µM | 1.88 µM | > 100 µM | 2.4 µM | > 100 µM | – | –
CCC1(CN(C)C)CC/C(=C\c2ccc(OC)c(OC)c2)C1=O (centres undefined) | – | – | – | > 100 µM | – | > 100 µM | – | > 100 µM | – | > 100 µM | – | > 100 µM | – | > 100 µM | – | > 100 µM | – | > 100 µM | > 100 µM | –
O=c1c2cc3c(cc2c2cccc4c2n1CCC4)OCO3 | – | – | – | > 100 µM | – | > 100 µM | – | > 100 µM | – | > 100 µM | – | > 100 µM | – | > 100 µM | – | > 100 µM | – | > 100 µM | 42 µM | –
COc1ccc(CCN2CCC(CN(C)Cc3cnn(-c4ccccc4)c3)CC2)cc1 | 3.58 µM | 20.1 µM | 16.5 µM | 33.6 µM | 12 µM | 24.6 µM | 7.75 µM | 57.5 µM | – | – | 12.1 µM | 24.8 µM | 21.2 µM | 66 µM | 3.37 µM | 16.2 µM | 2.59 µM | 7.12 µM | 19 µM | 4.54 µM
COc1cc2ccnc3c(=C(SC)SC)c(=O)c(c1OC)c23 | – | – | – | 31 µM | – | 23.1 µM | – | 30.2 µM | – | 28.3 µM | – | 10.7 µM | – | > 100 µM | – | 29.3 µM | – | 30.8 µM | 5.18 µM | –
O=c1cccc(-c2cccc(=O)[nH]2)[nH]1 | – | – | – | > 100 µM | – | > 100 µM | – | – | – | > 100 µM | – | > 100 µM | – | – | – | > 100 µM | – | > 100 µM | – | –
N#Cc1cccc(C=NC23CC4CC(CC(C4)C2)C3)c1 | – | – | – | > 100 µM | – | > 100 µM | – | > 100 µM | – | > 100 µM | – | > 100 µM | – | > 100 µM | – | > 100 µM | – | > 100 µM | > 100 µM | –
COc1ccc(-c2csc(NC(=O)CN3CCN(c4cc5c(cc4F)c(=O)c(C(=O)O)cn5C4CC4)CC3)n2)cc1 | – | – | 3.9 µM | > 100 µM | 3.6 µM | 31.1 µM | – | – | 4.1 µM | > 100 µM | – | – | 4.1 µM | > 100 µM | 3.37 µM | > 100 µM | – | – | > 100 µM | 3.48 µM
O=[N+]([O-])c1cc2no[n+]([O-])c2cc1N1CCCCC1 | – | 44.3 µM | – | > 100 µM | – | 2.62 µM | – | 8.37 µM | – | 7.19 µM | – | 4.81 µM | – | 35.5 µM | – | 6.16 µM | – | > 36.1 µM | – | –
CCCCOC1OC(COC(=O)C(C)C)C(OC(=O)C(C)C)C(O)C1OC1OC(C)C(OC(=O)CCC)C(OC(=O)C(C)C)C1O (centres undefined) | 10.1 µM | 21.7 µM | 14.7 µM | 27.8 µM | 14 µM | 26.9 µM | 15.1 µM | 30.4 µM | – | – | 13.3 µM | 26.1 µM | 16.5 µM | 31.3 µM | 16.8 µM | 32.2 µM | 18.5 µM | 32.5 µM | 39.6 µM | 19.1 µM
OCCN(CCO)c1cccc(N(CCO)CCO)n1 | – | – | – | > 100 µM | – | > 100 µM | – | > 100 µM | – | > 100 µM | – | > 100 µM | – | > 100 µM | – | > 100 µM | – | > 100 µM | > 100 µM | –
CCCCNc1ccc(Nc2ccccc2)cc1 | 16.9 µM | 95 µM | 5.06 µM | > 100 µM | 10.4 µM | 74.6 µM | 4.35 µM | > 100 µM | 6.3 µM | 31.3 µM | 5.85 µM | 21.5 µM | 5.19 µM | > 100 µM | 14.4 µM | 43.1 µM | – | – | – | –
COc1cccc(SSc2cccc(OC)c2C(=O)O)c1C(=O)O | – | – | – | > 100 µM | – | > 100 µM | – | > 100 µM | – | > 100 µM | – | > 100 µM | – | – | – | > 100 µM | – | > 100 µM | > 100 µM | –
COc1ccc(-c2c3c(nc4n[nH]c(-c5ccc(Cl)cc5)c24)-c2ccccc2C(=O)C3=O)cc1 | 1.6 µM | 5.3 µM | 1.6 µM | 3.03 µM | 2.01 µM | 4.59 µM | 1.7 µM | 15.9 µM | 1.71 µM | 3.48 µM | – | – | 1.83 µM | 3.7 µM | 1.17 µM | 2.9 µM | 1.57 µM | 2.95 µM | 2.99 µM | 1.43 µM
CN(CCC(=O)/C(=C\c1ccccc1)c1ccc(Cl)cc1)Cc1ccccc1 | – | – | 2.63 µM | 7.74 µM | 2.03 µM | 4.1 µM | 3.15 µM | 12.7 µM | 2.7 µM | 7.99 µM | – | – | 3.92 µM | 19.1 µM | 1.74 µM | 3.63 µM | 10.7 µM | 24.2 µM | 3.19 µM | 1.69 µM
Cc1ccc(S(=O)(=O)N/N=C/C(C)C)cc1 | – | – | – | > 100 µM | – | > 100 µM | – | > 100 µM | – | > 100 µM | – | > 100 µM | – | > 100 µM | – | > 100 µM | – | > 100 µM | – | –
Cc1ccc(-n2nnnc2-c2cnc(N3CCOCC3)nc2-c2cccc(C(F)(F)F)c2)cc1 | 3.24 µM | > 12.2 µM | 1.93 µM | > 25.1 µM | 1.89 µM | > 50 µM | – | – | 1.08 µM | 2.69 µM | 2.53 µM | 7.53 µM | 2.21 µM | > 32.8 µM | 1.14 µM | – | 4.88 µM | > 30.5 µM | > 12.9 µM | 1.89 µM
